Data on one molecule can be found in patent US12472193B2, “Methods and compositions for treating and preventing respiratory related diseases and conditions with xylitol-headgroup lipid analogs” (National Jewish Health, priority 2017, dated 2025).

This data set concerns RSV. The experiment in a line: 18:1 DEPX interference with RSV infection in vivo (BALB/c mice). More on the design: species or system mouse. The method, then: Six-week-old female BALB/c mice were obtained from Jackson Laboratory. Mice were anesthetized with isoflurane and through intranasal inoculation a 50 μL volume of PBS control, 18:1 DEPX lipid alone, 18:1 DEPX+RSV or RSV only was delivered to mice. Mice were infected with 1×10^7 pfu/mL RSV. 18:1 DEPX liposomes were delivered to mice at a final amount of 100 μg. For lipid antagonism, RSV and 18:1 DEPX were mixed together in PBS prior to inoculation. Five days following initial infection, mice were euthanized by asphyxiation with carbon dioxide following prescribed guidelines by the IACUC. Next, mice were dissected to expose the trachea where a small cut was made to insert a luer stub. The lungs were then lavaged with 1 mL of saline. The chest cavity was opened and the lungs perfused with PBS and then removed. The left lung was homogenized in 1 mL of serum-free DMEM, the homogenates were centrifuged at 3800 rcf for 15 minutes at 4° C. and supernatant was used for quantitative plaque assay analysis. Lower right lungs were fixed overnight in 10% buffered formalin, then dehydrated and paraffin-embedded. Lungs were then sliced and stained with Hematoxylin-Eosin (H&E) for microscopy pictures and histopathological scoring. Total cell counts were determined from BALF and cell types were assessed by cytospin. IFN-γ was quantified by ELISA from the cell-free supernatants of BALF. The upper right lung was homogenized, RNA was extracted, converted to cDNA and RSV replication was determined by quantitative PCR of the F protein.
Female BALB/C mice were obtained from Jackson Laboratories at 6 weeks of age. The experiment consisted of four groups, a PBS control, 18:1 DEPX liposomes alone, 18:1 DEPX liposomes+RSV and RSV alone. Mice were inoculated with RSV at 1×10^7 pfu/mL. 100 μg 18:1 DEPX was the dose tested for protective effects in the mouse lung. Each mouse group underwent intranasal inoculation for delivery of experimental conditions in a final volume of 50 μL. Mice were monitored daily and body weight was recorded. At the height of RSV infection on day 5, the mice were euthanized. Bronchoalveolar lavage fluid (BALF) was collected, the chest cavity was opened and the lungs removed. The left lobe of the lungs was homogenized in serum-free DMEM, centrifuged at 3800 rcf for 15 minutes at 0° C. and the supernatant collected for quantitative plaque assay described in the previous chapter. The lower right lobe of the lung was fixed overnight in 10% buffered formalin and then processed by paraffin embedding, slicing and fixing of the lung to a microscope slide and H&E staining. The upper right lobe of the lung was homogenized, RNA was extracted and converted to cDNA and then quantitative real-time PCR was used to determine RSV replication by quantification of the F protein. Cells within BALF were quantified and assessed for cell populations by cytospin. BALF supernatant was stored and subsequently used for IFNγ quantification.
On day 5 following RSV infection mice were sacrificed by carbon dioxide asphyxiation according to IACUC protocol. Mice were dissected to expose the trachea where a small cut was made for the insertion of a leur stub and the lungs were lavaged with 1 mL of saline. A 20 μL aliquot was obtained from BALF collected and cellular infiltration into the lungs was quantified using a hemocytometer. The remaining lavage fluid was centrifuged at 500×g for 5 minutes, supernatant was collected and cells were resuspended in PBS for cytospin. In studies shown in FIG. 11, mice were challenged with either saline (CNTL), or 10^7 virus (RSV), or virus plus 18:1 DEPX (18:1 DEPX+RSV), or lipid alone (18;1 DEPX). The mice received all agents in a volume of 50 μl applied intranasally. On day 6 the mice were euthanized and the lungs were lavaged with saline. The cells in the lavage were recovered by centrifugation and quantified by counting using a hemocytometer. In RSV infected mice cell numbers were ˜120×10^4. […]

The mark [1] stands for this setting: 18:1 DEPX alone, 100 μg intranasal.

Molecules are shown by their SMILES. “Also recorded” adds a separate entry of the source.

Take `CCCCCCCCC=CCCCCCCCCOCC(COP(=O)(O)OCC(O)C(O)C(O)CO)OCCCCCCCCC=CCCCCCCCC` (mixture of isomers) [18:1 DEPX, sn-1-O-octadecenyl, sn-2-O-octadecenyl sn-3 glycerol phosphoxylitol]: under setting [1], the “daily body weight, lipid alone vs control mice” value is “no difference in daily body weight” and the “number of cells in lavage, lipid alone vs control” value is reported as “no difference in number of cells”. Under “18:1 DEPX+RSV mice”, the “IFNγ in BALF compared to RSV alone” value is “reduced; also recorded: significantly lower”. Moreover, the “cell numbers in lavage” value (18:1 DEPX+RSV mice, 1 mL BALF, FIG. 11) is given as ~20×10^4. For the same molecule, the “IFNγ in BALF” value (18:1 DEPX+RSV mice, day 5) is “Around 1 ng/mL”. Where the note is “18:1 DEPX+RSV vs RSV alone”, the “cellular infiltration into the lungs (BALF)” value is reported as “suppresses an overabundance of cellular infiltration; also recorded: decreased number of inflammatory cellular infiltrates; also recorded: suppresses influx of inflammatory cells; also recorded: reduced cellular infiltrates; also recorded: significantly lower amounts of cellular infiltrates” and the “reduction of viral plaque number” value was found to be 50%. Under “18:1 DEPX+RSV vs RSV alone, H&E”, the lung histopathology result is reported as “appeared less affected by the virus”. Further, the “reduction in RSV expression (qPCR)” value (first viral challenge experiment) is 2.6 fold. Moreover, for the setting “latter two experiments”, the “reduction of RSV expression by a factor of (qPCR)” value is reported as 6.2. Moreover, under “plaque assay and qPCR”, the “viral load / RSV infection in lung compared to RSV mice” value is listed as “reduces viral copy number; also recorded: inhibited RSV infection; also recorded: reduced viral load”.
